Measured values reported in patent publication US6670368B1, “Pyrimidine compounds with pharmaceutical activity” (AstraZeneca AB, priority 1999, dated 2003).

Molecular target: T1, CDK4/Cyclin D1 (Homo sapiens, UniProt P11802)
T1 construct: made in house; host or cells: SF21 (Spodoptera frugiperda) insect cells, baculovirus co-infection, vector pVL1393
Assay: in vitro kinase assay (Scintillation Proximity Assay), incorporation of [γ-33-P]-ATP into GST-Retinoblastoma
Assay type: biochemical
Details: CDK4/Cyclin D1 partially-purified enzyme, GST-Rb substrate, 0.2 μM ATP, room temperature 60 minutes; read-out: CDK4 inhibitory activity IC50
Protocol: The compounds were tested in an in vitro kinase assay in 96 well format using Scintillation Proximity Assay (SPA-obtained from Amersham) for measuring incorporation of [γ-33-P]-Adenosine Triphosphate into a test substrate (GST-Retinoblastoma). In each well was placed the compound to be tested (diluted in DMSO and water to correct concentrations) and in control wells either p16 as an inhibitor control or DMSO as a positive control.
Approximately 0.5 μl of CDK4/Cyclin D1 partially-purified enzyme (amount dependent on enzyme activity) diluted in 25 μl incubation buffer was added to each well then 20 μl of GST-Rb/ATP/ATP33 mixture (containing 0.5 μg GST-Rb and 0.2 μM ATP and 0.14 μCi [γ-33-P]-Adenosine Triphosphate), and the resulting mixture shaken gently, then incubated at room temperature for 60 minutes. To each well was then added 150 μL stop solution containing (0.8 mg/well of Protein A-PVT SPA bead (Amersham)), 20 pM/well of Anti-Glutathione Transferase, Rabbit IgG (obtained from Molecular Probes), 61 mM EDTA and 50 mM HEPES pH 7.5 containing 0.05% sodium azide.
The plates were sealed with Topseal-S plate sealers, left for two hours then spun at 2500 rpm, 1124×g., for 5 minutes. The plates were read on a Topcount for 30 seconds per well. […]

T1 sequence (P11802 whole entry): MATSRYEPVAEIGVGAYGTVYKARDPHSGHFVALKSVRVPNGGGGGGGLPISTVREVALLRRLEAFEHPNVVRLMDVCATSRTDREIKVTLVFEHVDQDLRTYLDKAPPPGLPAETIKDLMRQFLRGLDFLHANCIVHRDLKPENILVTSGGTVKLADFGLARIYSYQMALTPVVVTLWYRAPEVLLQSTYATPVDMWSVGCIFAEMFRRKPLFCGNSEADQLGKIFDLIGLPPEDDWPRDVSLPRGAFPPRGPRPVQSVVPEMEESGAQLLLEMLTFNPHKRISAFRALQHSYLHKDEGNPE
T1 sequence (P24385 whole entry partner): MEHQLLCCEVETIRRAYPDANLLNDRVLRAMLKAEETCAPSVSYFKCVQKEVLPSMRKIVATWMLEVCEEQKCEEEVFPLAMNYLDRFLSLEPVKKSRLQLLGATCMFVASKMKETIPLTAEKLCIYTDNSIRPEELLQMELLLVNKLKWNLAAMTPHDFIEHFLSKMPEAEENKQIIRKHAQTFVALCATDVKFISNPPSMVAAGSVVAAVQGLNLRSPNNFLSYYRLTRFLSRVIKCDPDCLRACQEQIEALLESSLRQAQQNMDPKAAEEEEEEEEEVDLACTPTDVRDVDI

- IC50: 1200 nM
SMILES: Cc1ccc(C)c(Oc2cc(Nc3ccc(OCC(O)CN(C)C)cc3)ncn2)c1 (stereo not shown) [Example 6]
